According to patent publication US9220746B2, “Compounds and methods for treating bone disorders and controlling weight” (The University of North Carolina at Chapel Hill, priority 2009, dated 2015):
Blank lines part the entries; values can stand above or below the molecule they belong to.

Tests used:
PTEN = test: Western blot analysis of PTEN expression; type: cell-based, mouse; conditions: for PTEN concentrations: aortic smooth muscle and bone cells from IGFBP-2 gene deleted mice, exogenous addition
Method: FIG. 5. The heparin-binding domain of IGFBP2 suppresses PTEN expression. a and b, Igfbp2^−/− calvarial osteoblasts (COBs) were isolated, and treated with PBS, IGFBP-2 or pegylated heparin-binding domain peptide (PEG-HBD) in MEMα containing 0.1% BSA overnight. Whole cell lysate was collected and expression of PTEN and α-actin was analyzed by Western blot analysis. Expression levels of PTEN were quantified by normalizing to the expression levels of α-actin. c and d. COBs pre-incubated with PBS, IGFBP-2 or PEG-HBD overnight were treated with IGF-I (100 ng/ml) for 15 minutes. Whole cell lysate was collected and expression of pSer473-Akt and Akt was analyzed by Western blot analysis. Expression levels of pSer473-Akt were quantified by normalizing to the expression levels of Akt. Figures shown represent at least 3 independent experiments. Values are expressed as the mean±SEM (n=3-4). Statistical difference was analyzed by Student's t-test. *; <0.001, **; <0.01, ^†; <0.05.
FIG. 9. […] Igfbp2^+/+ calvarial osteoblasts were treated with PBS, control peptide, or heparin-binding domain peptide (HBD-peptide) overnight, and whole cell lysate was collected. PTEN expression was analyzed using western blot analysis (a), and quantitative analysis was performed (b). Values were expressed as the mean±SEM (n=3). Statistical significance was analyzed by ANOVA followed by Bonferroni post-hoc test. ^a; p<0.01 vs. PBS, ^b; p<0.01 vs. control peptide.
To prepare whole cell lysates, cells were solubilized in RIPA buffer^55. For cytosolic fraction, cells were solubilized with hypotonic buffer containing protease and phosphatase inhibitors (10 mM Tris, 0.2 mM MgCl2, pH 7.4) and kept on ice for 10 min. Cell lysates were mixed with sucrose buffer (final concentration; 25 mM Sucrose, 0.1 mM EDTA) and centrifuged at 20,000×g for 1 hour. Supernatant was used as cytosolic fraction. To prepare the membrane fraction, cells were solubilized with PBS containing protease and phosphatase inhibitors. The lysates were frozen at −80° C. for 1 h and thawed at room temperature. After three cycles, they were centrifuged at 13,000×g for 25 min. The pellet was suspended with membrane protein isolation buffer (20 mM Tris-HCl; 150 mM NaCl; 1 mM EDTA; 1 mM EGTA; and 1% Triton X-100, pH 7.5) containing protease and phosphatase inhibitors. Protein concentration was assessed by BCA protein assay kit (Thermo Scientific) and equal amounts of sample were separated by SDS-PAGE and transferred electrophoretically to nitrocellulose membranes. Membranes were blocked in 5% BSA in Tris-buffered saline. […]

mouse metatarsal bones = test: Ex vivo metatarsal explant bone growth and mineralization; type: cell-based; conditions: for bone growth and calcification: metatarsals derived from IGFBP-2−/− mice, 20-200 ng/ml
Source text: This system uses an ex vivo explant system, therefore it is a transition between cultured cells and in vivo experiments. The bone forming tissue is removed directly from a mouse and then grown in organ culture for several days. The test additives can be added directly to the medium at any concentration in order to test for biological activity. The method is as follows: mouse metatarsal bones were isolated from newborn mice between days 0 and 3 after birth using the dissecting microscope. The middle three metatarsals were used for all experiments. Three metatarsals were incubated per well in a 24 well tissue culture dish in DMEM containing 0.5% bovine serum, […], 1 mM beta glycerol phosphate at 37° C. The medium was replaced one day later and the metatarsals are cultured for up to 10 days. Growth was measured by quantitative increase in size, both length and width of the bones using an inverted phase microscope with a built in micrometer scaling bar for measurements. Mineralization was assessed by the addition of calcein (500 ng/ml) to the medium for 2 hrs prior to tissue fixation. Fluorescent images were captured using a digital camera attached to an inverted microscope and quantifying calcein fluorescence under the appropriate […] stimulus. Bone and cartilage histology were measured by fixing the bones in 4% PFA overnight and storing at 70% ethanol, followed by […] embedding sectioning and staining. Sections were stained with H&E, Alizaran red or alkaline phosphatase. For analysis of proteins, the tissue was homogenized in Laemmli sample buffer and gels were run using standard SDS polyacrylamide gel electrophoresis and western blotting.

adherent macrophages = test: Osteoclast differentiation, tartrate resistant acid phosphatase staining; type: cell-based, mouse; conditions: for osteoclast differentiation: macrophages of IGFBP-2 gene deleted Balb/c mice, mCSF, RANK ligand, TRAP stain day 7
Source text: The method for osteoclast differentiation is as follows: Balb/c mice in which the IGFBP-2 gene had been deleted (see V. DeMambro et al, Endocrinology, 149(5): 2051-2061 (2007)) were anesthetized and sacrificed using cervical dislocation. The femurs from each mouse were dissected free of soft tissue and the bone marrow aspirated by needle puncture. Cells were removed sterile and resuspended in DMEM with 10% fetal calf serum. The cells were centrifuged at 700×g and the cell pellet resuspended in medium and plated in 24 well plates at a concentration of 5000 cells/cm^2. The plates that are used are low adherence plates that have no additives to facilitate cell adherence. Under these conditions macrophages will adhere while other cells will not. The media is supplemented with mCSF 20 ng/ml. After 3 days the cells are removed from the plate and the adherent macrophages are exposed to fresh media containing 10% FBS and mCSF. This is repeated again after 3 days and then after an additional 3 days cells are trypsinized and replated in fresh plates at 6×10^4 cells/cm. At this time RANK ligand, 50 ng/ml, is added, although in some experiments concentrations as low as 10 ng/ml were utilized. Medium is changed at 3 and 6 days and on day 7 cells are stained for tartrate resistant acid phosphatase, a marker of osteoclast differentiation. IGFBP-2 was added at concentrations between 50 ng/ml and 500 mcg/ml. The peptide was added at 20 or 200 ng/ml.
For tartrate resistant acid phosphatase staining, a 1% solution is prepared and incubated with the cells for 30 min at room temperature. Cultures are then washed and cell number determined by manual counting.

- serum concentration at which osteoclast differentiation was still detected in the presence of the peptide (adherent macrophages): 0.5%
Molecule: KHHLGLEEPKKLR (IGFBP-2 heparin binding domain-containing peptide sequence) [peptide of SEQ ID NO:1]
- PTEN concentrations (PTEN): could suppress PTEN concentrations
- bone growth and calcification (mouse metatarsal bones): stimulated bone growth and calcification
- effect on bone growth (mouse metatarsal bones; metatarsals from normal mice): modest additional stimulatory effect
- osteoclast differentiation (adherent macrophages): would not differentiate into osteoclasts without addition

B1: IGFBP-2: Insulin-like growth factor binding protein-2, 36,000 dalton protein, purified from cellular conditioned medium (protein, UniProt P18065 36-325, looked up)
Insulin-like growth …: AEVLFRCPPCTPERLAACGPPPVAPPAAVAAVAGGARMPCAELVREPGCGCCSVCARLEGEACGVYTPRCGQGLRCYPHPGSELPLQALVMGEGTCEKRRDAEYGASPEQVADNGDDHSEGGLVENHVDSTMNMLGGGGSAGRKPLKSGMKELAVFREKVTEQHRQMGKGGKHHLGLEEPKKLRPPPARTPCQQELDQVLERISTMRLPDERGPLEHLYSLHIPNCDKHGLYNLKQCKMSLNGQRGECWCVNPNTGKLIQGAPTIRGDPECHLFYNEQQEARGVHTQRMQ
- PTEN concentrations (PTEN): could suppress PTEN concentrations
- PTEN expression (PTEN; primary calvarial osteoblasts, overnight treatment): markedly suppressed PTEN expression
- bone growth and calcification (mouse metatarsal bones): stimulated bone growth and calcification
- osteoclast differentiation (adherent macrophages): would not differentiate into osteoclasts without addition
